In patent US12522595B2, “Bicyclic ether O-glycoprotein-2-acetamido-2-deoxy-3-D-glucopyranosidase inhibitors” (BIOGEN MA INC., priority 2019, dated 2026):

target: T1, Recombinant full length human OGA enzyme (Homo sapiens, UniProt O60502); test: OGA enzyme inhibition biochemical assay; settings: 1 nM OGA, 100 μM 4-MUGlcNAc (Km), pH 6.4, 90 minutes at room temperature, 10-point dose-response from 20 μM
T1 construct: Recombinant full length human OGA enzyme was purchased from Origene; purchased Origene
T1 sequence (O60502 1-916): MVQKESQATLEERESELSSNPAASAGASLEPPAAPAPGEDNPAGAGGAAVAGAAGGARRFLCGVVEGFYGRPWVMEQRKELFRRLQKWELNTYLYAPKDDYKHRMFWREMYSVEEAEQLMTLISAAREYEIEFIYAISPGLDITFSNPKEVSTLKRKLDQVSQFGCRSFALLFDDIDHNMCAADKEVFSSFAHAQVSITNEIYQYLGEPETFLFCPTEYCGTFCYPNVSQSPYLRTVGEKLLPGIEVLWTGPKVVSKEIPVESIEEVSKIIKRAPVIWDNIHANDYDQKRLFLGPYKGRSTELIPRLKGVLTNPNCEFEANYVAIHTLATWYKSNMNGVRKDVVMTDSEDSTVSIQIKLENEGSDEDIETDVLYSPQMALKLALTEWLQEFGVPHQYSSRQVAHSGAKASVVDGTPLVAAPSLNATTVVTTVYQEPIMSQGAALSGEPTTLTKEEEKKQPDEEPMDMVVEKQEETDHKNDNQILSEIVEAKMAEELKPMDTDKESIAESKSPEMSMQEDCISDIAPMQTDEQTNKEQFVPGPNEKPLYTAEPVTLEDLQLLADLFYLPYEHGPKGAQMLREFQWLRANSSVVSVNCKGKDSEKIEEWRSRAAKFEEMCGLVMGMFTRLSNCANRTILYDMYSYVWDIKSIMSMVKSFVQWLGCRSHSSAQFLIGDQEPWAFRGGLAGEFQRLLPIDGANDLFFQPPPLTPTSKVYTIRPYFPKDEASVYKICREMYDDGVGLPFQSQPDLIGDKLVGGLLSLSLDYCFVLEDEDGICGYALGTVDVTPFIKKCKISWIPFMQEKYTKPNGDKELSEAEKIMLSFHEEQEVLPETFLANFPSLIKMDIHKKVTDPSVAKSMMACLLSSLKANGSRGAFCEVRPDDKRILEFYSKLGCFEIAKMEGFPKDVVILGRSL
Summary of the method: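 1 nM OGA with 100 μM 4-MUGlcNAc (Km) in McIlvaine buffer pH 6.4, 0.01% BSA, 90 min at room temperature; quenched with 3M glycine pH 10, fluorescence Ex 355/Em 460 nm. 10-point, 4-fold dilutions from 20 μM; 4-parameter variable-slope fit.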

| SMILES | IC50 [nM] |
| --- | --- |
| CC(=O)Nc1nc(F)c(CN2C[C@H](Oc3nccc4cn(C)nc34)C[C@@H]2C)s1 [Example 137, N-(4-fluoro-5-(((2S,4R)-2-methyl-4-((2-methyl-2H-pyrazolo[3,4-c]pyridin-7-yl)oxy)pyrrolidin-1-yl)methyl)thiazol-2-yl)acetamide] | 4.3 |
| CC(=O)Nc1nc(F)c(CN2C[C@H](Oc3ncnc4c3cnn4C)C[C@@H]2C)s1 [Example 143, N-(4-fluoro-5-(((2S,4R)-2-methyl-4-((1-methyl-1H-pyrazolo[3,4-d]pyrimidin-4-yl)oxy)pyrrolidin-1-yl)methyl)thiazol-2-yl)acetamide] | < 1 |
| CC(=O)Nc1nc(F)c(CN2C[C@H](Oc3ccc4nc(C)nn4c3)C[C@@H]2C)s1 [Example 144, N-(4-fluoro-5-(((2S,4R)-2-methyl-4-((2-methyl-[1,2,4]triazolo[1,5-a]pyridin-6-yl)oxy)pyrrolidin-1-yl)methyl)thiazol-2-yl)acetamide] | < 1 |
| CC(=O)Nc1nc(F)c(CN2C[C@H](Oc3nccc4ncnn34)C[C@@H]2C)s1 [Example 145, N-(5-(((2S,4R)-4-([1,2,4]triazolo[1,5-c]pyrimidin-5-yloxy)-2-methylpyrrolidin-1-yl)methyl)-4-fluorothiazol-2-yl)acetamide] | < 1 |
| CC(=O)Nc1nc(F)c(CN2C[C@H](Oc3ccn4cnnc4c3)C[C@@H]2C)s1 [Example 146, N-(5-(((2S,4R)-4-([1,2,4]triazolo[4,3-a]pyridin-7-yloxy)-2-methylpyrrolidin-1-yl)methyl)-4-fluorothiazol-2-yl)acetamide] | < 1 |
| CC(=O)Nc1nc(F)c(CN2C[C@H](Oc3cccc4nnnn34)C[C@@H]2C)s1 [Example 147, N-(4-fluoro-5-(((2S,4R)-2-methyl-4-(tetrazolo[1,5-a]pyridin-5-yloxy)pyrrolidin-1-yl)methyl)thiazol-2-yl)acetamide] | < 1 |
| COc1cccn2nc(O[C@@H]3C[C@H](C)N(Cc4sc(NC(C)=O)nc4F)C3)nc12 [Example 148, N-(4-fluoro-5-(((2S,4R)-4-((8-methoxy-[1,2,4]triazolo[1,5-a]pyridin-2-yl)oxy)-2-methylpyrrolidin-1-yl)methyl)thiazol-2-yl)acetamide] | < 1 |
| CC(=O)Nc1nc(F)c(CN2C[C@H](Oc3ccn4nncc4c3)C[C@@H]2C)s1 [Example 149, N-(5-(((2S,4R)-4-([1,2,3]triazolo[1,5-a]pyridin-5-yloxy)-2-methylpyrrolidin-1-yl)methyl)-4-fluorothiazol-2-yl)acetamide] | < 1 |
| CC(=O)Nc1nc(F)c(CN2C[C@H](Oc3ccc4nnn(C)c4n3)C[C@@H]2C)s1 [Example 150, N-(4-fluoro-5-(((2S,4R)-2-methyl-4-((3-methyl-3H-[1,2,3]triazolo[4,5-b]pyridin-5-yl)oxy)pyrrolidin-1-yl)methyl)thiazol-2-yl)acetamide] | < 1 |
| CC(=O)Nc1nc(F)c(CN2C[C@H](Oc3ccc4nn(C)nc4n3)C[C@@H]2C)s1 [Example 151, N-(4-fluoro-5-(((2S,4R)-2-methyl-4-((2-methyl-2H-[1,2,3]triazolo[4,5-b]pyridin-5-yl)oxy)pyrrolidin-1-yl)methyl)thiazol-2-yl)acetamide] | < 1 |
| CC(=O)Nc1nc(F)c(CN2C[C@H](Oc3ccc4c(nnn4C)n3)C[C@@H]2C)s1 [Example 152, N-(4-fluoro-5-(((2S,4R)-2-methyl-4-((1-methyl-1H-[1,2,3]triazolo[4,5-b]pyridin-5-yl)oxy)pyrrolidin-1-yl)methyl)thiazol-2-yl)acetamide] | < 1 |
| CC(=O)Nc1nc(F)c(CN2C[C@H](Oc3ccc4c(cnn4C(F)F)n3)C[C@@H]2C)s1 [Example 153, N-(5-(((2S,4R)-4-((1-(difluoromethyl)-1H-pyrazolo[4,3-b]pyridin-5-yl)oxy)-2-methylpyrrolidin-1-yl)methyl)-4-fluorothiazol-2-yl)acetamide] | < 1 |
| CC(=O)Nc1nc(F)c(CN2C[C@H](Oc3ccc4nn(C(F)F)cc4n3)C[C@@H]2C)s1 [Example 154, N-(5-(((2S,4R)-4-((2-(difluoromethyl)-2H-pyrazolo[4,3-b]pyridin-5-yl)oxy)-2-methylpyrrolidin-1-yl)methyl)-4-fluorothiazol-2-yl)acetamide] | < 1 |
| CC(=O)Nc1ncc(CN2C[C@H](Oc3ccc4ccnn4c3)C[C@@H]2C)s1 [Example 155, N-(5-(((2S,4R)-2-methyl-4-(pyrazolo[1,5-a]pyridin-6-yloxy)pyrrolidin-1-yl)methyl)thiazol-2-yl)acetamide] | < 1 |
| CC(=O)Nc1ncc(CN2C[C@H](Oc3cccn4ccnc34)C[C@@H]2C)s1 [Example 156, N-(5-(((2S,4R)-4-(imidazo[1,2-a]pyridin-8-yloxy)-2-methylpyrrolidin-1-yl)methyl)thiazol-2-yl)acetamide] | < 1 |
| CC(=O)Nc1nc(F)c(CN2C[C@H](Oc3cccn4ccnc34)C[C@@H]2C)s1 [Example 157, N-(4-fluoro-5-(((2S,4R)-4-(imidazo[1,2-a]pyridin-8-yloxy)-2-methylpyrrolidin-1-yl)methyl)thiazol-2-yl)acetamide] | < 1 |
| CC(=O)Nc1nc(F)c(CN2C[C@H](Oc3nc4ncccc4o3)C[C@@H]2C)s1 [Example 158, N-(4-fluoro-5-(((2S,4R)-2-methyl-4-(oxazolo[4,5-b]pyridin-2-yloxy)pyrrolidin-1-yl)methyl)thiazol-2-yl)acetamide] | < 1 |
| CC(=O)Nc1ncc(CN2C[C@H](Oc3cccc4cn(C)nc34)C[C@@H]2C)s1 [Example 159, N-(5-(((2S,4R)-2-methyl-4-((2-methyl-2H-indazol-7-yl)oxy)pyrrolidin-1-yl)methyl)thiazol-2-yl)acetamide] | < 1 |
| CC(=O)Nc1ncc(CN2C[C@H](Oc3cccc4cnn(C)c34)C[C@@H]2C)s1 [Example 160, N-(5-(((2S,4R)-2-methyl-4-((1-methyl-1H-indazol-7-yl)oxy)pyrrolidin-1-yl)methyl)thiazol-2-yl)acetamide] | 2.4 |

Continued, values first:

| IC50 [nM] | SMILES |
| --- | --- |
| < 1 | CC(=O)Nc1nc(F)c(CN2C[C@H](Oc3ccnc4cn(C)nc34)C[C@@H]2C)s1 [Example 134, N-(4-fluoro-5-(((2S,4R)-2-methyl-4-((2-methyl-2H-pyrazolo[4,3-b]pyridin-7-yl)oxy)pyrrolidin-1-yl)methyl)thiazol-2-yl)acetamide] |
| < 1 | CC(=O)Nc1nc(F)c(CN2C[C@H](Oc3ccnc4cnn(C)c34)C[C@@H]2C)s1 [Example 135, N-(4-fluoro-5-(((2S,4R)-2-methyl-4-((1-methyl-1H-pyrazolo[4,3-b]pyridin-7-yl)oxy)pyrrolidin-1-yl)methyl)thiazol-2-yl)acetamide] |
| < 1 | CC(=O)Nc1nc(F)c(CN2C[C@H](Oc3nccc4nn(C)cc34)C[C@@H]2C)s1 [Example 136, N-(4-fluoro-5-(((2S,4R)-2-methyl-4-((2-methyl-2H-pyrazolo[4,3-c]pyridin-4-yl)oxy)pyrrolidin-1-yl)methyl)thiazol-2-yl)acetamide] |
| < 1 | CC(=O)Nc1nc(F)c(CN2C[C@H](Oc3nccc4c3cnn4C)C[C@@H]2C)s1 [Example 138, N-(4-fluoro-5-(((2S,4R)-2-methyl-4-((1-methyl-1H-pyrazolo[4,3-c]pyridin-4-yl)oxy)pyrrolidin-1-yl)methyl)thiazol-2-yl)acetamide] |
| < 1 | CC(=O)Nc1nc(F)c(CN2C[C@H](Oc3ccnc4c3cnn4C)C[C@@H]2C)s1 [Example 139, N-(4-fluoro-5-(((2S,4R)-2-methyl-4-((1-methyl-1H-pyrazolo[3,4-b]pyridin-4-yl)oxy)pyrrolidin-1-yl)methyl)thiazol-2-yl)acetamide] |
| < 1 | CC(=O)Nc1nc(F)c(CN2C[C@H](Oc3ccnc4nn(C)cc34)C[C@@H]2C)s1 [Example 140, N-(4-fluoro-5-(((2S,4R)-2-methyl-4-((2-methyl-2H-pyrazolo[3,4-b]pyridin-4-yl)oxy)pyrrolidin-1-yl)methyl)thiazol-2-yl)acetamide] |
| < 1 | CC(=O)Nc1nc(F)c(CN2C[C@H](Oc3cccn4nccc34)C[C@@H]2C)s1 [Example 141, N-(4-fluoro-5-(((2S,4R)-2-methyl-4-(pyrazolo[1,5-a]pyridin-4-yloxy)pyrrolidin-1-yl)methyl)thiazol-2-yl)acetamide] |
| < 1 | CC(=O)Nc1nc(F)c(CN2C[C@H](Oc3ncc4cnn(C)c4n3)C[C@@H]2C)s1 [Example 142, N-(4-fluoro-5-(((2S,4R)-2-methyl-4-((1-methyl-1H-pyrazolo[3,4-d]pyrimidin-6-yl)oxy)pyrrolidin-1-yl)methyl)thiazol-2-yl)acetamide] |
